These results are taken from US20230167073A1 (Teijin Pharma Limited, priority 2020, published 2023).

Each structure is given as a SMILES string.

This assay deals with T1, Human TRPC6 (Homo sapiens, UniProt Q9Y210).
T1 construct: expressed in transfected cells
T1 sequence (Q9Y210 1-931): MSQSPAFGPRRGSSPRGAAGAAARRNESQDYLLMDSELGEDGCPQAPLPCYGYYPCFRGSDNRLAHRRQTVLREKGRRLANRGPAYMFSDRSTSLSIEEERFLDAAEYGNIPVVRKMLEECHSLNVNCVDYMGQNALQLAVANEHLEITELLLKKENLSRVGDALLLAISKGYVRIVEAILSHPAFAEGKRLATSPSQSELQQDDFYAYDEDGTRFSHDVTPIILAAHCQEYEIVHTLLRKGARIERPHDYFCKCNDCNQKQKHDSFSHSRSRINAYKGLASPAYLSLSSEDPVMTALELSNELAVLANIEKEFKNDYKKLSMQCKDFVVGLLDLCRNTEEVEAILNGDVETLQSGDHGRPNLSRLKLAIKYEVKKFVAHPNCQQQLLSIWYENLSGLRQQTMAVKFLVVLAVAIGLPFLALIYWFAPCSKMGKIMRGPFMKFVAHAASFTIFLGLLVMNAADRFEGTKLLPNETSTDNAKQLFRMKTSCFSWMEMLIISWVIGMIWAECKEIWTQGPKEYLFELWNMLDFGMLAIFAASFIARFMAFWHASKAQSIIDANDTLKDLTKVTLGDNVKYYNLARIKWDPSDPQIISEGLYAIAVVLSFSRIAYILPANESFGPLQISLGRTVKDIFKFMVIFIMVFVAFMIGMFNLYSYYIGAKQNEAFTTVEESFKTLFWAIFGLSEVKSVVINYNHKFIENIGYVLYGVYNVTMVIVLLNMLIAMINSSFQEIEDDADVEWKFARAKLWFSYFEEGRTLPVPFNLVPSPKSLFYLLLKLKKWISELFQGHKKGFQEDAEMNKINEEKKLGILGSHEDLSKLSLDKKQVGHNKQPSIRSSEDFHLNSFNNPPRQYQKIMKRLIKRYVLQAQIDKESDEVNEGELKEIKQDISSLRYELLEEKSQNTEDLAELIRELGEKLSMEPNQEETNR
As to the kind of experiment: Evaluation of TRPC6 channel inhibitory activity (1), FLIPR Calcium 5 Assay Kit, OAG stimulation (Compound Nos. 1-1293). The format is cell-based. Conditions: Human TRPC6 stably-expressing cells, OAG 30 μM, FLIPR Calcium 5 Assay Kit; read-out: Inhibitory activity (pIC50 class) (converted). Summed up: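 TRPC6 (human) stable cells, 24 h culture; Ca5 no-wash dye + probenecid 30 min; cpd 20 min; OAG 30 μM final; ΔF (pre-cpd min to post-OAG max); 0%/100% = no cpd / no cpd + no OAG; 4PL → pIC50, binned +/++/+++.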
`Cc1nc(Oc2cc(C#N)ccc2-c2nc([C@@H](O)CN)cs2)cc(-c2ccccc2)n1` [Compound 222, 4-[4-[(1S)-2-amino-1-hydroxyethyl]-1,3-thiazol-2-yl]-3-(2-methyl-6-phenylpyrimidin-4-yl)oxybenzonitrile]: the IC50 is 10 to 1000 nM.

As for `N#Cc1ccc(-c2ccc(CN)cn2)c(Oc2cnnc(N3CCCC3)c2)c1` [compound 696, 4-[5-(aminomethyl)pyridin-2-yl]-3-(6-pyrrolidin-1-ylpyridazin-4-yl)oxybenzonitrile], the IC50 was less than 10 nM.

On to `Cn1nc(-c2ccccc2)cc1Oc1cc(C#N)ccc1-c1ccc2c(N)noc2c1` [compound 415, 4-(3-amino-1,2-benzoxazol-6-yl)-3-(2-methyl-5-phenylpyrazol-3-yl)oxybenzonitrile], for which the IC50 is more than 1000 nM.

Turning to `Cc1nc(Oc2cc(C#N)ccc2-c2ccc(N3CCNCC3)cc2)cc(N2CCOCC2)n1` [Compound 12, 3-(2-methyl-6-morpholin-4-ylpyrimidin-4-yl)oxy-4-(4-piperazin-1-ylphenyl)benzonitrile], the IC50 is more than 1000 nM.

For the molecule `COC(C)c1cn(Cc2cc(C#N)ccc2-c2ccc(CCN)cn2)c(C)n1` (centres unmarked) [compound 1140, 4-[5-(2-aminoethyl)pyridin-2-yl]-3-[[4-(1-methoxyethyl)-2-methylimidazol-1-yl]methyl]benzonitrile], the IC50 is 10 to 1000 nM.

In the case of `Cn1nc(C2CC2)cc1Oc1nc(C#N)ccc1-c1ncc(CCN)cn1` [compound 1281, 5-[5-(2-aminoethyl)pyrimidin-2-yl]-6-(5-cyclopropyl-2-methylpyrazol-3-yl)oxypyridine-2-carbonitrile], the IC50 is 10 to 1000 nM.

In the case of `N#Cc1ccc(-c2ccc(CCN)cc2)c(Oc2cnnc(-c3ccccc3C(N)=O)c2)c1` [Compound 94, 2-[5-[2-[4-(2-aminoethyl)phenyl]-5-cyanophenoxy]pyridazin-3-yl]benzamide], the IC50 is more than 1000 nM.

As for `N#Cc1ccc(-c2ncc(CCN)cn2)c(Oc2cnn(CC(F)F)c2)c1` [compound 927, 4-[5-(2-aminoethyl)pyrimidin-2-yl]-3-[1-(2,2-difluoroethyl)pyrazol-4-yl]oxybenzonitrile], the IC50 is 10 to 1000 nM.

On to `Cc1cc(Oc2cc(C#N)ccc2-c2ccc([C@H](O)CN)cn2)cc(-c2ncc(C)s2)n1` [compound 605, 4-[5-[(1S)-2-amino-1-hydroxyethyl]pyridin-2-yl]-3-[2-methyl-6-(5-methyl-1,3-thiazol-2-yl)pyridin-4-yl]oxybenzonitrile], for which the IC50 was 10 to 1000 nM.

Take `Cc1cc(Oc2cc(C#N)ccc2-c2ncc(CCN)cn2)cc(-c2ncco2)n1` [compound 596, 4-[5-(2-aminoethyl)pyrimidin-2-yl]-3-[2-methyl-6-(1,3-oxazol-2-yl)pyridin-4-yl]oxybenzonitrile]: the IC50 was 10 to 1000 nM.

As for `Cn1nc(-c2ccccn2)cc1Oc1cc(C#N)ccc1-c1cccn2c(CN)nnc12` [compound 617, 4-[3-(aminomethyl)-[1,2,4]triazolo[4,3-a]pyridin-8-yl]-3-(2-methyl-5-pyridin-2-ylpyrazol-3-yl)oxybenzonitrile], the IC50 was 10 to 1000 nM.

`COCCNc1cc(Oc2cc(C#N)ccc2-c2ncc(CN)cn2)nc(C)n1` [compound 639, 4-[5-(aminomethyl)pyrimidin-2-yl]-3-[6-(2-methoxyethylamino)-2-methylpyrimidin-4-yl]oxybenzonitrile]: the IC50 is more than 1000 nM.

Take `Cc1nc(OCCC(C)(C)C)cc(Oc2cc(C#N)ccc2-c2ccc(CCN)cc2)n1` [Compound 42, 4-[4-(2-aminoethyl)phenyl]-3-[6-(3,3-dimethylbutoxy)-2-methylpyrimidin-4-yl]oxybenzonitrile]: the IC50 was more than 1000 nM.

Consider `CCOC(CN)c1ccc(-c2ccc(C#N)cc2Oc2cc(N3CCOCC3)nc(C)n2)cc1` (centres unmarked) [Compound 100, 4-[4-(2-amino-1-ethoxyethyl)phenyl]-3-(2-methyl-6-morpholin-4-ylpyrimidin-4-yl)oxybenzonitrile], for which the IC50 is less than 10 nM.

On to `Cn1nc(C2CC2)cc1Oc1cc(C#N)ccc1-c1ccc(C(C)(C)N)cn1` [compound 400, 4-[5-(2-aminopropan-2-yl)pyridin-2-yl]-3-(5-cyclopropyl-2-methylpyrazol-3-yl)oxybenzonitrile], for which the IC50 is 10 to 1000 nM.

In the case of `Cc1cc(Oc2cc(C#N)ccc2-c2ncc(CN)cn2)cc(NC2CCOCC2)n1` [compound 648, 4-[5-(aminomethyl)pyrimidin-2-yl]-3-[2-methyl-6-(oxan-4-ylamino)pyridin-4-yl]oxybenzonitrile], the IC50 was more than 1000 nM.

For `Cn1nc(-c2ccccn2)cc1Oc1cc(C#N)ccc1-c1nccc(CN)n1` [compound 682, 4-[4-(aminomethyl)pyrimidin-2-yl]-3-(2-methyl-5-pyridin-2-ylpyrazol-3-yl)oxybenzonitrile], the IC50 was 10 to 1000 nM.

With `Cc1nc(Oc2cc(C#N)ccc2-c2ccc(C(O)CN)c(O)c2)cc(N2CCOCC2)n1` (centres unmarked) [Compound 152, 4-[4-(2-amino-1-hydroxyethyl)-3-hydroxyphenyl]-3-(2-methyl-6-morpholin-4-ylpyrimidin-4-yl)oxybenzonitrile], the IC50 is 10 to 1000 nM.

As for `N#Cc1ccc(-c2ncc(CCN)cn2)c(Oc2nnc(C3CC3)s2)c1` [compound 728, 4-[5-(2-aminoethyl)pyrimidin-2-yl]-3-[(5-cyclopropyl-1,3,4-thiadiazol-2-yl)oxy]benzonitrile], the IC50 is 10 to 1000 nM.

On to `Cn1nc(-c2ccccn2)cc1Oc1cc(C#N)ccc1-c1ccc(C(O)CN)cc1` (centres unmarked) [Compound 161, 4-[4-(2-amino-1-hydroxyethyl)phenyl]-3-(2-methyl-5-pyridin-2-ylpyrazol-3-yl)oxybenzonitrile], for which the IC50 is less than 10 nM.

Regarding `Cc1nc(Oc2cc(C#N)ccc2-c2ncc([C@H](O)CN)cn2)cc(N2CCO[C@@H](C)C2)n1` [compound 559, 4-[5-[(1S)-2-amino-1-hydroxyethyl]pyrimidin-2-yl]-3-[2-methyl-6-[(2S)-2-methylmorpholin-4-yl]pyrimidin-4-yl]oxybenzonitrile], the IC50 was 10 to 1000 nM.

With `Cn1nc(-c2ccccc2)cc1Oc1cc(C#N)ccc1-c1ncc(CCN)cn1` [Compound 274, 4-[5-(2-aminoethyl)pyrimidin-2-yl]-3-(2-methyl-5-phenylpyrazol-3-yl)oxybenzonitrile], the IC50 is less than 10 nM.

For `N#Cc1ccc(-c2ncc(CCN)cn2)c(Sc2cnnc(N3CCCC3)c2)c1` [compound 1259, 4-[5-(2-aminoethyl)pyrimidin-2-yl]-3-(6-pyrrolidin-1-ylpyridazin-4-yl)sulfanylbenzonitrile], the IC50 is less than 10 nM.

Regarding `Cn1nc(-c2cncc(F)c2)cc1Oc1cc(C#N)ccc1-c1ncc(CN)cn1` [compound 928, 4-[5-(aminomethyl)pyrimidin-2-yl]-3-[5-(5-fluoropyridin-3-yl)-2-methylpyrazol-3-yl]oxybenzonitrile], the IC50 was 10 to 1000 nM.

As to `CN(C)c1cc(Cc2cc(C#N)ccc2-c2ccc(CCN)cn2)n(C)n1` [compound 1217, 4-[5-(2-aminoethyl)pyridin-2-yl]-3-[[5-(dimethylamino)-2-methylpyrazol-3-yl]methyl]benzonitrile], the IC50 was less than 10 nM.

For the molecule `N#Cc1ccc(-c2ccc(C(CN)C(F)F)cc2)c(Oc2cnnc(N3CCOCC3)c2)c1` (centres unmarked) [Compound 139, 4-[4-(3-amino-1,1-difluoropropan-2-yl)phenyl]-3-(6-morpholin-4 ylpyridazin-4-yl)oxybenzonitrile], the IC50 is 10 to 1000 nM.
